Reference: patent US12628826B2, “Fungicidal composition” (UPL Corporation Limited, priority 2020, dated 2026)

Legend:
Aphanomyces euteiches = assay: Potted plant trial, field pea, 2× rate of Aphanomyces infection (Example 2); details: ipconazole 2.5, carboxin 66.7, metalaxyl 6.7 g ai/100 kg, combination 500 ml/100 kg; for Root rot damage: 29 DAP
Procedure: The control consisted of seed inoculated with Aphanomyces and used water as the seed treatment. The experiment was performed in a controlled environment growth cabinet.
Culture: A 3-day old culture of Aphanomyces euteiches (3 days is when growth has fully encompassed plate) was used for 5 mm inoculation plug source (each plate received one 5 mm plug and four seeds)×4 reps.
Experimental design: 4 reps of each treatment (including controls), with each replication represented by 5 planted seeds for a total of 20 seeds per treatment were performed. All treatments received inoculum. Each seed is placed in a solitary location of a plant tray/flat that has 50 plugs per flat. One flat contained 2 treatments, separated by 10 plugs (2 rows of 5). Treatments 1 and 6 (controls) shared the same flat. The plug flats were placed in a collection tray that was not perforated and all watering was done with tap water from bottom up.
Culture media: 3 day old cultures of A. euteiches were grown on CYP (corn meal agar+yeast extract+phosphate buffer), amended with wheat leaf sections were transferred to 100 ml sterile distilled water in 250 ml flasks and shaken at 100 rpm in the dark at 23° C. for 18 hours for zoospore production.
Inducing Aphanomyces infection: Zoospores were counted and adjusted to a concentration of 1×10^4 spores, and 5 mls of this suspension was pipetted to the base of each plant on 4 DAP and again on 11 DAP (days after planting). This amounted to 50000 zoospores applied to the base of each plant at each inoculation timing. This was called 2× rate. The experiment was conducted in a growth cabinet at 23° C./22° C., 16 hrs light/8 hours dak.-root washing/rating of root darkening took place at 29 DAP which was 18 days after the second inoculation event or 25 days after the first inoculation event.

[1] = tested on: Mycosphaerella pinodes and Ascochyta pinodella; assay: Potted plant trial, pea, stem damage from seed borne root rot / ascochyta blight; details: ipconazole 2.5, carboxin 66.7, metalaxyl 6.7 g ai/100 kg, combination 500 ml/100 kg

| Compound | Root rot damage (Aphanomyces euteiches) | Plant height (cm) (Aphanomyces euteiches) | Seed emergence (%) (Aphanomyces euteiches) | Stem damage [1] [a 0-3 index/scale] |
| --- | --- | --- | --- | --- |
| CC1=C(C(=O)Nc2ccccc2)SCCO1 [Carboxin] | 0.6 bc 0-5 index/scale | 12.9 | 80.0 | 1.8 |
| COCC(=O)N(c1c(C)cccc1C)C(C)C(=O)OC (stereo not shown) [Metalaxyl] | 0.7 bc 0-5 index/scale | 12.2 | 80.0 | – |
| CC(C)C1CCC(Cc2ccc(Cl)cc2)C1(O)Cn1cncn1 (stereo not shown) [Ipconazole] | 2.2 a 0-5 index/scale | 12.3 | 85.0 | – |
